According to patent publication US11986507B1, “Micronutrient composition to improve men's health” (priority 2023, dated 2024):

Key:
Assay type in all cases: cell-based
[1] = tested on: Mouse Leyden TM3 cells; test: Testosterone production assay in TM3 cells, normal conditions (testosterone ELISA)
Protocol: (§1) Testosterone production assay: Mouse Leyden TM3 cells (ATCC) were cultured at 37° C., 5% CO2, in growth medium: 1:1 mixture of Ham's F12 medium and Dulbecco's modified Eagle's medium with 2.5 mM L-Glutamine, 0.5 mM Sodium Pyruvate, 1.2 g/L Sodium Bicarbonate and 15 mM HEPES, 92.5%; horse serum, 5%; fetal bovine serum, 2.5%. TM3 cells were seeded in 96-well plates covered with fibronectin or collagen (COSTAR) in […] growth medium. After reaching confluency cells were supplied with tested components in 100 mcl growth medium for 48 hour incubation. In some tests we also used additions of TNF alpha at 1 ng/ml and 10 ng/ml as indicated in appropriate figure legends. Testosterone content in 50 mcl conditioned cell culture medium samples was assayed with testosterone ELISA assay (DRG #EIA-1559) as described in the manufacturer's protocol.
The concentration of ingredients were Rosemary extract 20 mcg/ml, Fenugreek-20 mcg/ml, Cassia nomane—20 mcg/ml, 3′3-di indolylmethylene—5 mcg/ml, Zinc—2 mcg/ml, Phosphatidylserine—20 mcg/ml, Vitamin D—5 mcg/ml, Niacin—20 mcg/ml, Theanine—2 mcg/ml, Aspartic acid—2 mcg/ml, Arginine—2 mcg/ml and DHEA—2 mcg/ml.

[2] = tested on: IL6 release by Human Aortic Endothelial Cells (HAEC); test: IL6 secretion by human aortic endothelial cells (HAEC) in the presence of LPS (ELISA); settings: 24 h, 20 ng/ml LPS, with 200 mcM Ascorbate or w/o Ascorbate (FIG. 13)
Protocol: Cytokine assay in Human Aortic endothelial cells (AoEC): Human Aortic endothelial cells (AoEC, Lonza) were cultured in EBG-2 cell culture medium (Lonza) and used in experiments at 5-8 passages. AoEC were seeded in 96-well plates covered with fibronectin or collagen (COSTAR) in 100 mcl/well growth medium. After reaching confluency cells were supplemented with tested components in 100 mcl growth medium for 48 hour incubation. Levels of cytokines were assayed with corresponding ELISA assays (R&D Systems).
The test was carried out by incubating HAEC cells for 24 h in the presence of 20 ng/ml LPS (all samples) and 200 mcM Ascorbate or w/o Ascorbate.

[3] = tested on: Mouse Leyden TM3 cells; test: Testosterone production assay in TM3 cells under pro-inflammatory conditions (TNF alpha); settings: 10 ng/ml TNFa; for effect on testosterone secretion (in words): 48 h, in the presence and absence of DHEA (FIG. 3)
Protocol: as §1
It is known that chronic inflammation, such as in the presence of TNF alpha, can suppress testosterone production, which has physiological implications as it is related to an increased risk of infertility. Incubation was for 48 h with 10 ng/ml TNFa (all samples) and 1 mcg/ml DHEA or w/o DHEA. Data are presented as % of no additions Control. We evaluated the effects of micronutrients on testosterone production in Leydig cells exposed to a proinflammatory factor—TNF alpha.

[4] = tested on: Human aortic smooth muscle cells (AoSMC); test: Collagen gel contraction by AoSMC; settings: individual components (FIG. 6)
Protocol: Collagen gel contraction by AoSMC: Gel Contraction Assay: Human aortic smooth muscle cells (AoSMS) were obtained from Lonza Corporation and cultured in DMEM cell culture medium (ATCC) supplemented with 5% fetal bovine serum (ATCC). For experiments cells were suspended in DMEM medium at 500,000 per mL by trypsinization and mixed with equal volume of 2 mg/ml bovine skin collagen (Sigma) solution in DMEM. Resulting cell suspension was distributed at 300 mcl per well of plastic 24 well plate pretreated with 10 mg/ml bovine serum albumin in phosphate buffered saline. Collagen gels, formed in the wells after one hour incubation at 37° C., were supplemented with 500 mcl DMEM containing indicated amounts of tested compounds. After 24 hours incubation at 37° C. pictures of the wells were taken with digital photo camera and gel surface area was measured in pixels using ImageJ scientific software. Gel contraction was expressed as percentage of unsupplemented control using the following formula: (No Cell Control Gel Area−Tested Sample Gel Area)/(No Cell Control Gel Area−Not Supplemented Control Gel Area)*100%. All experiments were done in triplicates and results are expressed as mean values+/−SD.

Molecule | testosterone secretion, % of Control ([1]; 11 mcg/ml (FIG. 2)) | effect of individual compounds on IL-6 secretion (in words) [2] | effect on testosterone secretion (in words) [3] | also measured
C=C1CC[C@H](O)C/C1=C/C=C1\CCC[C@]2(C)[C@@H]([C@H](C)CCCC(C)C)CC[C@@H]12 [Vitamin D, Cholecalciferol] | 115 % of Control | significant inhibitory effect |  | 
C[C@]12CC[C@H](O)CC1=CC[C@@H]1[C@@H]2CC[C@]2(C)C(=O)CC[C@@H]12 [DHEA, Dehydroepiandrosterone] | 1402 % of Control |  |  | increase of testosterone secretion compared to control ([1]; 11 mcg/ml (FIG. 2)): 1402%; increase of testosterone secretion compared to control ([1]; 33 mcg/ml (FIG. 2)): 2361%; increase of testosterone secretion compared to control ([1]; applied individually, DHEA 2 mcg/ml (FIG. 1)): 161%; decrease of testosterone secretion compared to normal Control ([3]; 1 mcg/ml DHEA, 48 h (FIG. 3)): about 48%
CC(=O)[O-].CC(=O)[O-].[Zn+2] [zinc, Zinc Acetate Dihydrate] |  |  | decreasing | SMC relaxation by individual compounds [4]: 69%
Phosphatidylserine |  | significant inhibitory effect |  | 
Oc1ccc(C=Cc2cc(O)cc(O)c2)cc1 [resveratrol] |  |  | decreasing | 
